Measurements: patent US8846698B2, “Pyrrolo[2,3-d]pyrimidine tropomysin-related kinase inhibitors” (Pfizer Limited, priority 2011, dated 2014)

The compounds below were run against TRKA (Homo sapiens (Human), UniProt P04629) (assay: Isolated TRK enzyme assay (HTRF KinEASE-TK), TRKA). Details: read-out: Trka enzyme (IC50).
Assay type: biochemical

Sequence of TRKA (P04629 441-796): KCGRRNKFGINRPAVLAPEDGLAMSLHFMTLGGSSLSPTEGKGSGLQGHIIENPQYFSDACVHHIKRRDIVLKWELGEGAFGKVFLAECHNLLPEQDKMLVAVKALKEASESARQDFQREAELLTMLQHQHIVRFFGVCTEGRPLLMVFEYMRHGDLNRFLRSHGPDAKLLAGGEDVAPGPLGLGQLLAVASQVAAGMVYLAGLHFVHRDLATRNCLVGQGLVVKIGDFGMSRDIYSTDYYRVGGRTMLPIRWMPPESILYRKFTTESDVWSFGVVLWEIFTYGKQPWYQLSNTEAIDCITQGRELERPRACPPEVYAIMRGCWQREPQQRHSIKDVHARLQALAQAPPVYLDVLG

| Structure (SMILES) | IC50 [nM] |
| --- | --- |
| Cc1cc(C(=O)Nc2cncc(C(=O)c3cn(C(C)C)c4ncncc34)c2)nc(C)n1 [Example 479, 2,6-Dimethyl-pyrimidine-4-carboxylic acid [5-(7-isopropyl-7H-pyrrolo[2,3-d]pyrimidine-5-carbonyl)-pyridin-3-yl]-amide] | 2160 |
| CC(C)n1cc(C(=O)c2cncc(NC(=O)c3cc(C#N)ccn3)c2)c2cncnc21 [Example 480, 4-Cyano-pyridine-2-carboxylic acid [5-(7-isopropyl-7H-pyrrolo[2,3-d]pyrimidine-5-carbonyl)-pyridin-3-yl]-amide] | 531 |
| COCc1cc(C(=O)Nc2cncc(C(=O)c3cn(C(C)C)c4ncncc34)c2)nn1C [Example 481, 5-Methoxymethyl-1-methyl-1H-pyrazole-3-carboxylic acid [5-(7-isopropyl-7H-pyrrolo[2,3-d]pyrimidine-5-carbonyl)-pyridin-3-yl]-amide] | 313 |
| CC(C)n1cc(C(=O)c2cncc(NC(=O)c3nc(Cl)c(Cl)[nH]3)c2)c2cncnc21 [Example 482, 4,5-Dichloro-1H-imidazole-2-carboxylic acid [5-(7-isopropyl-7H-pyrrolo[2,3-d]pyrimidine-5-carbonyl)-pyridin-3-yl]-amide] | 6860 |
| COc1cc(C(=O)Nc2cncc(C(=O)c3cn(C(C)C)c4ncncc34)c2)nc2c(C)nccc12 [Example 483, 4-Methoxy-8-methyl-1,7-naphthyridine-2-carboxylic acid [5-(7-isopropyl-7H-pyrrolo[2,3-d]pyrimidine-5-carbonyl)-pyridin-3-yl]-amide] | 118 |
| CCc1nc(C)c(C(=O)Nc2cncc(C(=O)c3cn(C(C)C)c4ncncc34)c2)o1 [Example 484, 2-Ethyl-4-methyl-oxazole-5-carboxylic acid [5-(7-isopropyl-7H-pyrrolo[2,3-d]pyrimidine-5-carbonyl)-pyridin-3-yl]-amide] | 192 |
| COc1cncc(C(=O)Nc2cncc(C(=O)c3cn(C(C)C)c4ncncc34)c2)c1 [Example 485, N-[5-(7-Isopropyl-7H-pyrrolo[2,3-d]pyrimidine-5-carbonyl)-pyridin-3-yl]-5-methoxy-nicotinamide] | 20 |
| CC(C)n1cc(C(=O)c2cncc(NC(=O)c3cnc4[nH]ncc4c3)c2)c2cncnc21 [Example 486, 1H-Pyrazolo[3,4-b]pyridine-5-carboxylic acid [5-(7-isopropyl-7H-pyrrolo[2,3-d]pyrimidine-5-carbonyl)-pyridin-3-yl]-amide] | 805 |
| CC(C)n1cc(C(=O)c2cncc(NC(=O)c3cnc4[nH]cnc4c3)c2)c2cncnc21 [Example 487, 3H-Imidazo[4,5-b]pyridine-6-carboxylic acid [5-(7-isopropyl-7H-pyrrolo[2,3-d]pyrimidine-5-carbonyl)-pyridin-3-yl]-amide] | 9800 |
| COc1nccn2cc(C(=O)Nc3cncc(C(=O)c4cn(C(C)C)c5ncncc45)c3)nc12 [Example 488, 8-Methoxy-imidazo[1,2-a]pyrazine-2-carboxylic acid [5-(7-isopropyl-7H-pyrrolo[2,3-d]pyrimidine-5-carbonyl)-pyridin-3-yl]-amide] | 64.6 |
| CC(C)n1cc(C(=O)c2cncc(NC(=O)c3ccncc3)c2)c2cncnc21 [Example 489, N-[5-(7-Isopropyl-7H-pyrrolo[2,3-d]pyrimidine-5-carbonyl)-pyridin-3-yl]-isonicotinamide] | 9800 |
| Cc1cccnc1C(=O)Nc1cncc(C(=O)c2cn(C(C)C)c3ncncc23)c1 [Example 490, 3-Methyl-pyridine-2-carboxylic acid[5-(7-isopropyl-7H-pyrrolo[2,3-d]pyrimidine-5-carbonyl)-pyridin-3-yl]-amide] | 9800 |
| CC(C)n1cc(C(=O)c2cncc(NC(=O)c3cnc4occc4c3)c2)c2cncnc21 [Example 491, Furo[2,3-b]pyridine-5-carboxylic acid [5-(7-isopropyl-7H-pyrrolo[2,3-d]pyrimidine-5-carbonyl)-pyridin-3-yl]-amide] | 1410 |
| CC(C)c1nnc2ccc(C(=O)Nc3cncc(C(=O)c4cn(C(C)C)c5ncncc45)c3)cn12 [Example 492, 3-Isopropyl-1,2,4-triazolo[4,3-a]pyridine-6-carboxylic acid [5-(7-isopropyl-7H-pyrrolo[2,3-d]pyrimidine-5-carbonyl)-pyridin-3-yl]-amide] | 1690 |
| CC(C)n1cc(C(=O)c2cncc(NC(=O)c3cocn3)c2)c2cncnc21 [Example 493, Oxazole-4-carboxylic acid [5-(7-isopropyl-7H-pyrrolo[2,3-d]pyrimidine-5-carbonyl)-pyridin-3-yl]-amide] | 848 |
| CC(C)n1cc(C(=O)c2cncc(NC(=O)c3ncccc3Cl)c2)c2cncnc21 [Example 494, 3-Chloro-pyridine-2-carboxylic acid[5-(7-isopropyl-7H-pyrrolo[2,3-d]pyrimidine-5-carbonyl)-pyridin-3-yl]-amide] | 2570 |
| CC(C)n1cc(C(=O)c2cncc(NC(=O)c3cnc4nccn4c3)c2)c2cncnc21 [Example 495, Imidazo[1,2-a]pyrimidine-6-carboxylic acid [5-(7-isopropyl-7H-pyrrolo[2,3-d]pyrimidine-5-carbonyl)-pyridin-3-yl]-amide] | 9800 |

| Structure (SMILES) | IC50 [nM] |
| --- | --- |
| CC(C)n1cc(C(=O)c2cncc(NC(=O)c3cc(C4CC4)on3)c2)c2cncnc21 [Example 496, 5-Cyclopropyl-isoxazole-3-carboxylic acid [5-(7-isopropyl-7H-pyrrolo[2,3-d]pyrimidine-5-carbonyl)-pyridin-3-yl]-amide] | 199 |
| CC(C)n1cc(C(=O)c2cncc(NC(=O)c3cc(C4CC4)n[nH]3)c2)c2cncnc21 [Example 497, 5-Cyclopropyl-2H-pyrazole-3-carboxylic acid [5-(7-isopropyl-7H-pyrrolo[2,3-d]pyrimidine-5-carbonyl)-pyridin-3-yl]-amide] | 43.5 |
| Cc1cc2nnc(C(=O)Nc3cncc(C(=O)c4cn(C(C)C)c5ncncc45)c3)c(C)n2n1 [Example 498] | 2340 |
| Cc1ccncc1C(=O)Nc1cncc(C(=O)c2cn(C(C)C)c3ncncc23)c1 [Example 499, N-[5-(7-Isopropyl-7H-pyrrolo[2,3-d]pyrimidine-5-carbonyl)-pyridin-3-yl]-4-methyl-nicotinamide] | 9800 |
| CC(C)n1cc(C(=O)c2cncc(NC(=O)c3cn(C4CCC4)cn3)c2)c2cncnc21 [Example 500, 1-Cyclobutyl-1H-imidazole-4-carboxylic acid [5-(7-isopropyl-7H-pyrrolo[2,3-d]pyrimidine-5-carbonyl)-pyridin-3-yl]-amide] | 25.8 |
| CC(C)n1cc(C(=O)c2cncc(NC(=O)c3cc4ccccn4n3)c2)c2cncnc21 [Example 501, Pyrazolo[1,5-a]pyridine-2-carboxylic acid [5-(7-isopropyl-7H-pyrrolo[2,3-d]pyrimidine-5-carbonyl)-pyridin-3-yl]-amide] | 201 |
| CC(C)n1cc(C(=O)c2cncc(NC(=O)c3ccc4nnnn4c3)c2)c2cncnc21 [Example 502, Tetrazolo[1,5-a]pyridine-6-carboxylic acid [5-(7-isopropyl-7H-pyrrolo[2,3-d]pyrimidine-5-carbonyl)-pyridin-3-yl]-amide] | 6280 |
| CC(C)n1cc(C(=O)c2cncc(NC(=O)c3nnc4n3CCCC4)c2)c2cncnc21 [Example 503, 5,6,7,8-Tetrahydro-1,2,4-triazolo[4,3-a]pyridine-3-carboxylic acid [5-(7-isopropyl-7H-pyrrolo[2,3-d]pyrimidine-5-carbonyl)-pyridin-3-yl]-amide] | 963 |
| Cc1nc(C(=O)Nc2cncc(C(=O)c3cn(C(C)C)c4ncncc34)c2)c(C(F)(F)F)o1 [Example 504, 2-Methyl-5-trifluoromethyl-oxazole-4-carboxylic acid [5-(7-isopropyl-7H-pyrrolo[2,3-d]pyrimidine-5-carbonyl)-pyridin-3-yl]-amide] | 1020 |
| CC(C)n1cc(C(=O)c2cncc(NC(=O)c3cnc4cc[nH]c4c3)c2)c2cncnc21 [Example 505, 1H-Pyrrolo[3,2-b]pyridine-6-carboxylic acid [5-(7-isopropyl-7H-pyrrolo[2,3-d]pyrimidine-5-carbonyl)-pyridin-3-yl]-amide] | 1630 |
| CC(C)n1cc(C(=O)c2cncc(NC(=O)c3ccc4cnnc-4[nH]3)c2)c2cncnc21 [Example 506, Pyrazolo[3,4-b]pyridine-6-carboxylic acid [5-(7-isopropyl-7H-pyrrolo[2,3-d]pyrimidine-5-carbonyl)-pyridin-3-yl]-amide] | 67 |
| CC(C)n1cc(C(=O)c2cncc(NC(=O)c3[nH]nc4ccccc34)c2)c2cncnc21 [Example 507, 2H-Indazole-3-carboxylic acid [5-(7-isopropyl-7H-pyrrolo[2,3-d]pyrimidine-5-carbonyl)-pyridin-3-yl]-amide] | 5.45 |
| Cc1noc2ncc(C(=O)Nc3cncc(C(=O)c4cn(C(C)C)c5ncncc45)c3)cc12 [Example 508, 3-Methyl-isoxazolo[5,4-b]pyridine-5-carboxylic acid [5-(7-isopropyl-7H-pyrrolo[2,3-d]pyrimidine-5-carbonyl)-pyridin-3-yl]-amide] | 1630 |
| CC(C)n1cc(C(=O)c2cncc(NC(=O)c3ccnnc3)c2)c2cncnc21 [Example 509, Pyridazine-4-carboxylic acid [5-(7-isopropyl-7H-pyrrolo[2,3-d]pyrimidine-5-carbonyl)-pyridin-3-yl]-amide] | 9800 |
| CC(C)n1cc(C(=O)c2cncc(NC(=O)c3cc4c(cn3)OCCO4)c2)c2cncnc21 [Example 510, 2,3-Dihydro-1,4-dioxino[2,3-c]pyridine-7-carboxylic acid [5-(7-isopropyl-7H-pyrrolo[2,3-d]pyrimidine-5-carbonyl)-pyridin-3-yl]-amide] | 249 |
| CC(C)n1cc(C(=O)c2cncc(NC(=O)c3n[nH]c4ncccc34)c2)c2cncnc21 [Example 511, 1H-Pyrazolo[3,4-b]pyridine-3-carboxylic acid [5-(7-isopropyl-7H-pyrrolo[2,3-d]pyrimidine-5-carbonyl)-pyridin-3-yl]-amide] | 144 |
| CC(C)n1cc(C(=O)c2cncc(NC(=O)c3n[nH]c4ccc(F)cc34)c2)c2cncnc21 [Example 512, 5-Fluoro-1H-indazole-3-carboxylic acid [5-(7-isopropyl-7H-pyrrolo[2,3-d]pyrimidine-5-carbonyl)-pyridin-3-yl]-amide] | 12.6 |
